Here are results for four molecules from publication doi:10.1101/2021.07.14.452003v1 (biorxiv, 2021).

The IC50 is the concentration that gives 50% inhibition. Low values mean greater potency, high ones weaker potency.

In the assay the target is M. tuberculosis RnhC (Mt RnhC; Rv2228c; M. tuberculosis RNase HI) (Mycobacterium tuberculosis, UniProt P9WLH5). Nature of the assay: biochemical.
M. tuberculosis RnhC (Mt RnhC; Rv2228c; M. tuberculosis RNase HI), sequence (P9WLH5 whole entry): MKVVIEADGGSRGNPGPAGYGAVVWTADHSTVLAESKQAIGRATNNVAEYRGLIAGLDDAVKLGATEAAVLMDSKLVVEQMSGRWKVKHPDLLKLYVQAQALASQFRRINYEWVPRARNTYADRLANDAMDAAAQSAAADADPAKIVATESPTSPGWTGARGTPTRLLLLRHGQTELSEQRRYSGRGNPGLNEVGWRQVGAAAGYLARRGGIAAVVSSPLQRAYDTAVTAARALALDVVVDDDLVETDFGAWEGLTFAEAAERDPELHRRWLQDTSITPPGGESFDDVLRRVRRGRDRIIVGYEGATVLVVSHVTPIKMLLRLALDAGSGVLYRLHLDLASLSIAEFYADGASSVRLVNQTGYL
The molecule `CC(C)c1ccc(O)c(=O)c(O)c1` [NSC18806] yielded an IC50 of 32 µM.

The molecule `O=S(=O)(N/N=C/c1c(O)ccc2ccccc12)c1cc(Cl)c(Cl)cc1Cl` [NSC99726] came in with a half-inhibitory concentration (IC50) of 45 µM.

`Oc1ccc(-c2csc(Nc3ccccn3)n2)cc1O` [NSC353720] yielded an IC50 of 12 µM.

`COc1ccc(C2COc3cc(O)c(O)cc3C2)cc1` (stereo not shown) [NSC600285] displayed a half-inhibitory concentration (IC50) of 17 µM.
